Results taken from patent US7300926B2, “Steroidal quinols and their use for estrogen replacement therapy” (University of Florida Research Foundation, Inc., priority 2002, dated 2007).
Read-outs that look alike come from different tables or passages of the source.

Assays:
[1] = Uterine weight in ovariectomized rats; assay type: in vivo, rat; details: OVX rats; for uterine weight compared with control group: 200 μg/kg sc; for Uterine Weight (g, ± SEM): 200 μg/kg sc in corn oil, 2 hours prior to MCAO, harvested 24 hours after reperfusion
Method: Female, Sprague rats (200-250 g, Charles River, Wilmington, Mass.) were acclimatized for three days prior to surgery. Bilateral ovariectomy (OVX) was performed two weeks prior to middle cerebral artery occlusion (MCAO). Animals were anesthetized by intraperitoneal injection of ketamine (60 mg/kg) and xylazine (10 mg/kg). Rectal temperature was maintained at 37.5±0.5° C. during procedure. The middle cerebral artery was occluded for one hour then suture was withdrawn for reperfusion. […] Animals were decapitated 24 hours after reperfusion. Uteruses were harvested, blotted, and weighed for comparison among treatment groups.

[2] = Cerebral microdialysis, reduction of estrone-quinol to estrone in vivo; set-up: species or system rat; details: probe perfused at 1 μl/min with 10 picomole/μL in aCSF, ventral hippocampus
From the text: Male, Sprague rats (300-400 g) were anesthetized, placed in a stereotaxic instrument, and a guide cannula (CMA/12 guide cannula) was implanted into the ventral hippocampus under aseptic conditions. The guide cannula was fixed to the skull, together with stainless steel screws attached into additional two holes, with dental acrylics. Before starting the experiment (usually 5-7 days after the implantation of the guide cannula implantation) the rats were placed in a containment unit (BAS, Inc.) for at least 30 minutes. Then a microdialysis probe (CMA/12 polycarbonate membrane diameter 0.5 mm; membrane length 4 mm; molecular cut off: 5,000 Da) was inserted into the ventral hippocampus through the guide cannula. After insertion, the microdialysis probe was perfused with an artificial cerebrospinal fluid (aCSF) at a flow rate of 1 μl/min. maintained by a microperfusion pump (BAS BeeStinger) attached to the probe via polyethylene tubing and a liquid swivel. After equilibration for 50 minutes, an automatic refrigerated fraction collector (BAS HoneyComb) was used for continuous sampling of the probe efflux for 24 hours in 60 minute fractions collected into 300-μl glass vials (control). […]

[3] = biological target: T1, recombinant estrogen receptor β (ERβ) (Homo sapiens, UniProt Q92731); assay: Competition binding assay, […] EFC Estrogen Chemiluminescence Assay
T1 construct: purchased Panvera, Madison, Wis
T1 sequence (Q92731 whole entry): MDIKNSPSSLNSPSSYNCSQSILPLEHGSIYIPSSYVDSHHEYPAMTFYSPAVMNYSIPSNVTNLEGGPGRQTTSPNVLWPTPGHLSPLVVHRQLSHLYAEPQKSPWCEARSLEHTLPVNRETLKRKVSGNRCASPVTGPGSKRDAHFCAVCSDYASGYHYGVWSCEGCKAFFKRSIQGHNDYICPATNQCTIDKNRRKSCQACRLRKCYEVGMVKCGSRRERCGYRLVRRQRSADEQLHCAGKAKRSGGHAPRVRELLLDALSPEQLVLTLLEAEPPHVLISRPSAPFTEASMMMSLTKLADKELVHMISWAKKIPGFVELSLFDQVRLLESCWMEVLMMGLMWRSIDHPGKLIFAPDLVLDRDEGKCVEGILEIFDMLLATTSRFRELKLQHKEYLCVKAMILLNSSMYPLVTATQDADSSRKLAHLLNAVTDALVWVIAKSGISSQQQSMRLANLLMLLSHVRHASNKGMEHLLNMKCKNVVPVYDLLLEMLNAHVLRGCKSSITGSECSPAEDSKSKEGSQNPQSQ
Method: (§1) Competition binding assays were performed using an enzyme fragment complementation (EFC) method described in the […] EFC Estrogen Chemiluminescence Assay kit (Fremont, Calif.). […] The enzyme acceptor was then added for another 1.5 hours after which chemiluminescence substrate was added for another hour. Relative luminescences were determined using a Biotek FL600 plate reader (Biotek Instruments, Winooski, Vt.).

[4] = biological target: T2, recombinant estrogen receptor α (ERα) (Homo sapiens, UniProt P03372); assay: as above
T2 construct: purchased Panvera, Madison, Wis
T2 sequence (P03372 1-595): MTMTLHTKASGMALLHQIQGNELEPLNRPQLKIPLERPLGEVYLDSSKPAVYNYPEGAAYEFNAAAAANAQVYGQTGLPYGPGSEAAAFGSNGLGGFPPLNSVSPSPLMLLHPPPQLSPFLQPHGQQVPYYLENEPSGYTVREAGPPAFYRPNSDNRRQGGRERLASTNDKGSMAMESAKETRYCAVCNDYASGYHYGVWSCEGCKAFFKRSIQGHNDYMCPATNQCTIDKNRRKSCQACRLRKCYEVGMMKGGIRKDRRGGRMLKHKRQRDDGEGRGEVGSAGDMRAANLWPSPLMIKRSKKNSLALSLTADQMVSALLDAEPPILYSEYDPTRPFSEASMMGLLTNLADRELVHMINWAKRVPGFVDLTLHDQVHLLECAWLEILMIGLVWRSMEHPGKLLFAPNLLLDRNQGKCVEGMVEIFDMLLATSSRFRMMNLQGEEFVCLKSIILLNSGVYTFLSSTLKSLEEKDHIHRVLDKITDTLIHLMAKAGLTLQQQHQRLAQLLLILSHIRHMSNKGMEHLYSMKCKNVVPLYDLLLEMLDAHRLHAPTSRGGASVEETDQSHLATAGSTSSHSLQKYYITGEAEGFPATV
Method: as §1

[5] = In vitro reduction of estrone-quinol to estrone by reducing agents in phosphate buffer (LC/MS); assay type: in vitro ADME; details: for extent of reductive conversion: pH 7.5, 37° C.
Method: Estrone-quinol (0.1 mM) was incubated at 37° C. in 0.1 M phosphate buffer pH 7.5 in the presence of 1 mM of NADH, NADPH, sodium ascorbate, and glutathione (GSH). Aliquots (500 μl) were taken after 60 minutes of incubation, and extracted with ethyl acetate (3×0.5 mL) and the mixture vortexed for 1 minute and centrifuged at […] for 5 minutes. After removing the solvent, the residue of the combined organic extracts was analyzed for their estrone content by LC/MS/MS.
Mass spectra were recorded on a quadrupole ion-trap instrument (LCQ, ThermoFinnigan) using positive-ion APCI as the method of ionization. […] Compound identification was based on retention time (tR), APCI mass spectra, MS/MS and MS^3 with authentic compounds as references. […].
At incremental time points, […] aliquots were removed into ice-cooled centrifuge tubes, and 50 μl of glacial acetic acid was added. After immediate extraction with ethyl acetate (2×500 μl), the organic layer was evaporated under nitrogen stream at room temperature. Reconstitution of the samples with the LC mobile phase was followed by LC/MS analyses. For control, no reducing agents were used.
[…]. […] Kinetic analysis of the microsomal metabolism was done by nonlinear curve-fitting (Scientist for Windows; MicroMath, Inc., Salt Lake City, Utah) presuming consecutive first-order processes in the cascade of estrone-quinol→estrone→estrone-metabolites.

Row | Compound | uterine weight compared with control group [1] | Uterine Weight (g, ± SEM) [1] [g] | flux of entry into the brain [2] | IC50 [3] [µM] | IC50 [4] [µM] | initial rate of second-order reaction for the reduction by NADPH ([5]; 10-fold excess of NADPH, microsome-free buffer solution, identical incubation conditions) [nmol/min] | extent of reductive conversion ([5]; Example 4, 1.0 mM NADH) | extent of reductive conversion ([5]; Example 4, 1.0 mM NADPH) | IC50 ([3]; ERβ, read-out: IC50) [µM] | IC50 ([4]; ERα, read-out: IC50) [µM]
1 | C[C@]12CC[C@@H]3c4ccc(O)cc4CC[C@H]3[C@@H]1CCC2=O [E1, estrone, reference compound] | doubled | 0.222 ± 0.022 | – | – | – | – | – | – | – | –
2 | C[C@]12CC[C@H]3[C@@H](CCC4=CC(=O)C=C[C@@]43O)[C@@H]1CCC2=O [E1-quinol, 10β-hydroxyestra-1,4-diene-3,17-dione] | no difference | 0.115 ± 0.010 | about 2 picomole/minute | > 10 | > 10 | 0.62 ± 0.03 | significant extent of reductive conversion | significant extent of reductive conversion | – | –
3 | C[C@]12CC[C@H]3[C@@H](CCC4=CC(=O)C=C[C@@]43O)[C@@H]1CC[C@@H]2O [E2-quinol] | – | – | – | – | – | – | – | – | > 10 | > 10
